Our source for the IC50 values is US20200317642A1, “AMINE-SUBSTITUTED HETEROCYCLIC COMPOUNDS AS EHMT2 INHIBITORS AND DERIVATIVES THEREOF” (Epizyme, Inc., priority 2017, published 2020).

The assay concerns H3K9me2 in MDA-MB-231 cells. The experiment in a line: MDA-MB-231 H3K9me2 in-cell western assay (EHMT2 ICW). In kind it is cell-based. To be noted: Homo sapiens, Table 3A, read-out: ICW (IC50 μM). An excerpt:
MDA-MB-231 cell line was purchased from ATCC (Manassas, Va., USA). RPMI/Glutamax medium, Penicillin-Streptomycin, Heat Inactivated Fetal Bovine Serum, and D-PBS were purchased from Life Technologies (Grand Island, N.Y., USA). Odyssey blocking buffer, 800 CW goat anti-mouse IgG (H+L) antibody, and Licor Odyssey Infrared Scanner were purchased from Licor Biosciences, Lincoln, Nebr., USA. H3K9me2 mouse monoclonal antibody (Cat #1220) was purchased from Abcam (Cambridge, Mass., USA). 16% Paraformaldehyde was purchased from Electron Microscopy Sciences, Hatfield, Pa., USA). MDA-MB-231 cells were maintained in complete growth medium (RPMI supplemented with 10% v/v heat inactivated fetal bovine serum) and cultured at 37° C. under 5% C02. UNC0638 was purchased from Sigma-Aldrich (St. Louis, Mo., USA).
General Procedure for MDA-MB-231 HEK9me2 in-Cell Western Assay.
Compound (100 nL) was added directly to 384-well cell plate. MDA-MB-231 cells (ATCC) were seeded in assay medium (RPMI/Glutamax supplemented with 10% v/v heat inactivated fetal bovine serum and 1% Penicillin/Streptomycin, Life Technologies) at a concentration of 3,000 cells per well to a Poly-D-Lysine coated 384-well cell culture plate with 50 μL per well. Plates were incubated at 37° C., 5% CO2 for 48 hours (BD Biosciences 356697). […] After the incubation, 50 μL per well of 8% paraformaldehyde (Electron Microscopy Sciences) in PBS was added to the plates and incubated at room temperature for 20 minutes. Plates were transferred to a Biotek 406 plate washer and washed 2 times with 100 μL per well of wash buffer (1×PBS containing 0.3% Triton X-100 (v/v)). Next, 60 μL per well of Odyssey blocking buffer (Licor Biosciences) was added to each plate and incubated for 1 hour at room temperature. Blocking buffer was removed and 20 μL of monoclonal primary antibody α-H3K9me2 (Abcam) diluted 1:800 in Odyssey buffer with 0.1% Tween 20 (v/v) were added and plates were incubated overnight (16 hours) at 4° C. Plates were washed 5 times with 100 μL per well of wash buffer. Next 20 μL per well of secondary antibody was added (1:500 800 CW donkey anti-mouse IgG (H+L) antibody (Licor Biosciences), 1:1000 DRAQ5 (Cell Signaling Technology) in Odyssey buffer with 0.1% Tween 20 (v/v)) and incubated for 1 hour at room temperature. The plates were washed 5 times with 100 μL per well wash buffer then 2 times with 100 μL per well of water. Plates were allowed to dry at room temperature then imaged on a Licor Odyssey Infrared Scanner (Licor Biosciences) which measured integrated intensity at 700 nm and 800 nm wavelengths. Both 700 and 800 channels were scanned.
First, the ratio for each well was determined by:
Each plate included fourteen control wells of DMSO only treatment (Minimum Inhibition) as well as fourteen control wells (background wells) for maximum inhibition treated with control compound UNC0638 (Background wells).
The average of the ratio values for each well was calculated and used to determine the percent inhibition for each test well in the plate. Control compound was serially diluted three-fold in DMSO for a total of 10 test concentrations beginning at 1 μM. Percent inhibition was calculated as: […]
IC50 curves were generated using triplicate wells per concentration of compound. The IC50 is the concentration of compound at which measured methylation is inhibited by 50% as interpolated from the dose response curves. IC50 values were calculated using a non-linear regression (variable slope-four parameter fit model) with by the following formula:
where Top is fixed at 100% and Bottom is fixed to 0%, [I]=concentration of inhibitor, IC50=half maximal inhibitory concentration and n=Hill Slope.

Some results are limits rather than exact numbers.

Usually IC50 stands for the concentration that inhibits the measured activity by half. As to `CNC1=Nc2cc(-c3cc4n(n3)CCNC4)c(Cl)cc2C12CCC2` [Compound A10, 5′-chloro-N-methyl-6′-(4,5,6,7-tetrahydropyrazolo[1,5-a]pyrazin-2-yl)spiro[cyclobutane-1,3′-indol]-2′-amine], the half-inhibitory concentration (IC50) is above 1 µM.
For the compound `CNCc1cn(-c2cc3c(cc2Cl)C2(CCC2)C(NC)=N3)nn1` [Compound A11, 5′-chloro-N-methyl-6′-(4-((methylamino)methyl)-1H-1,2,3-triazol-1-yl)spiro[cyclobutane-1,3′-indol]-2′-amine], the IC50 lay in the range of 0.1 to 1 µM.
To `CNC1=Nc2cc(-c3cc4n(n3)CCN(C)C4)c(Cl)cc2C12CCC2` [Compound A12, 5′-chloro-N-methyl-6′-(5-methyl-4,5,6,7-tetrahydropyrazolo[1,5-a]145yrazine-2-yl)spiro[cyclobutane-1,3′-indol]-2′-amine] belongs above 1 µM; to `CNCc1cn(-c2c(Cl)ccc(Nc3nc(C)cc(NC)n3)c2Cl)nn1` [Compound A13, N2-(2,4-dichloro-3-(4-((methylamino)methyl)-1H-1,2,3-triazol-1-yl)phenyl)-N4,6-dimethylpyrimidine-2,4-diamine], 0.01 to 0.1 µM; to `CNCc1cc(-c2c(OC)ccc(Nc3nc(C)cc(NC)n3)c2F)no1` [Compound A14, N2-(2-fluoro-4-methoxy-3-[5-[(methylamino)methyl]-1,2-oxazol-3-yl]phenyl)-N4,6-dimethylpyrimidine-2,4-diamine], 0.1 to 1 µM.
To `CNCc1cn(-c2cc3c(cc2Cl)C2(CCC2)C(N)=N3)nn1` [Compound A15, 5′-chloro-6′-(4-((methylamino)methyl)-1H-1,2,3-triazol-1-yl)spiro[cyclobutane-1,3′-indol]-2′-amine] belongs 0.1 to 1 µM; to `CNC1=Nc2cc(-n3cc(CN4CCC4)cn3)c(Cl)cc2C12CCC2` [Compound A17, 6′-(4-(azetidin-1-ylmethyl)-1H-pyrazol-1-yl)-5′-chloro-N-methylspiro[cyclobutane-1,3′-indol]-2′-amine], 0.1 to 1 µM; to `CNc1cc(C)nc(Nc2ccc(OC)c(-n3cc4c(n3)CCNC4)c2F)n1` [Compound A19, N2-(2-fluoro-4-methoxy-3-(4,5,6,7-tetrahydro-2H-pyrazolo[4,3-c]pyridin-2-yl)phenyl)-N4,6-dimethylpyrimidine-2,4-diamine], 0.1 to 1 µM.
To `CNCc1cn(-c2c(OC)cc3c(c2F)N=C(NC)C32CCC2)nn1` [Compound A21] belongs 0.1 to 1 µM; to `CNCc1cn(-c2c(OC)cc3c(c2F)N=C(N)C32CCC2)nn1` [Compound A22], 0.1 to 1 µM.
